“And” between values parts separate entries of the source, which are not always exact repeats. Equal entries are not always repeated.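 A five-concentration, 48-hour dose response in 96-well plates underlies each endpoint, interpolated linearly between surrounding concentrations. Abbreviation: GI50, concentration required for 50% inhibition of growth. TGI is the concentration that stops growth completely.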
Experiments:
Assay in all cases: NCI-60 cell line screen, 48 h
SNB-19 CNS = test system: SNB-19 CNS
OVCAR-8 ovarian = test system: OVCAR-8 ovarian
NCI-H522 lung = test system: NCI-H522 lung
OVCAR-5 ovarian = test system: OVCAR-5 ovarian
PC-3 prostate = test system: PC-3 prostate
SK-OV-3 ovarian = test system: SK-OV-3 ovarian
SF-295 CNS = test system: SF-295 CNS
BT-549 breast = test system: BT-549 breast
A549 NSCLC = test system: A549 NSCLC
IGROV1 ovarian = test system: IGROV1 ovarian

Row | Structure (SMILES) | GI50 (SNB-19 CNS) | TGI (SNB-19 CNS) | GI50 (OVCAR-8 ovarian) | TGI (OVCAR-8 ovarian) | GI50 (NCI-H522 lung) | GI50 (OVCAR-5 ovarian) | TGI (OVCAR-5 ovarian) | GI50 (PC-3 prostate) | TGI (PC-3 prostate) | GI50 (SK-OV-3 ovarian) | TGI (SK-OV-3 ovarian) | GI50 (SF-295 CNS) | TGI (SF-295 CNS) | GI50 (BT-549 breast) | TGI (BT-549 breast) | GI50 (A549 NSCLC) | TGI (A549 NSCLC) | GI50 (IGROV1 ovarian) | TGI (IGROV1 ovarian) | TGI (NCI-H522 lung)
1 | CCN1C(=O)N(CC)C2C1NN=c1s/c(=C\c3ccc(Br)cc3)c(=O)n12 (stereo not drawn) | 0.346 µM | > 100 µM | 0.416 µM | > 100 µM | 0.0558 µM | 0.583 µM | > 100 µM | 0.168 µM | > 100 µM | 1.84 µM | > 100 µM | 0.0738 µM | > 100 µM | 0.196 µM | 16.4 µM | 0.313 µM | > 100 µM | 0.275 µM | > 82.2 µM | 
2 | CC1(/C=C/c2ccc(-c3ccccc3)cc2)CCn2cnc3ncnc(c32)N1O (stereo not drawn) | 0.526 µM | > 72.6 µM | 0.419 µM | > 55.1 µM | 0.521 µM | 0.623 µM | 58.7 µM | 0.57 µM | 34.8 µM | 0.434 µM | 20.4 µM | 0.419 µM | 17.1 µM | 0.495 µM | 16.9 µM | 0.466 µM | 23.5 µM | 0.337 µM | 14.1 µM | 34 µM
3 | COc1ccc(COc2ccc(Cc3cnc(N)nc3N)cc2OC)cc1 | > 25 µM | > 25 µM | > 25 µM | > 25 µM | > 25 µM | > 25 µM | > 25 µM | > 22.4 µM | > 25 µM | > 25 µM | > 25 µM | 10.4 µM | > 25 µM | 12.1 µM | > 25 µM | > 23.4 µM | > 25 µM | > 25 µM | > 25 µM | > 25 µM
4 | OCC1OC(N2CCN(C3OC(CO)C(O)C(O)C3O)CC2)C(O)C(O)C1O (stereo not drawn) |  | > 100 µM |  | > 100 µM |  |  | > 100 µM |  | > 100 µM |  | > 100 µM |  | > 100 µM |  | > 100 µM |  | > 100 µM |  | > 100 µM | > 100 µM
5 | CC#CC#C/C=C1/C=CC2(CCCCO2)O1 (stereo not drawn) |  | > 100 µM |  | > 100 µM |  |  | > 100 µM |  | > 100 µM |  | > 100 µM |  | > 100 µM |  | > 100 µM |  | > 100 µM |  | > 100 µM | > 100 µM
6 | NS(=O)(=O)c1ccc(NC(=O)Nc2cccc3ccccc23)cc1 |  | 44.8 µM |  | 40.6 µM |  |  | > 100 µM |  | 44 µM |  | > 100 µM |  | > 100 µM |  | > 100 µM |  | > 100 µM |  | > 100 µM | 34.9 µM
7 | Cc1cccc(Nc2ncc(-c3ccccc3)o2)c1 | > 25 µM | > 25 µM | > 25 µM | > 25 µM | > 25 µM | > 25 µM | > 25 µM | > 25 µM | > 25 µM | > 25 µM | > 25 µM | > 25 µM | > 25 µM | > 25 µM | > 25 µM | > 25 µM | > 25 µM | > 25 µM | > 25 µM | > 25 µM
8 | c1ccc(OCC[P+](c2ccccc2)(c2ccccc2)c2ccccc2)cc1 | 1.39 µM | 15.1 µM | 1.54 µM | 15 µM | 0.335 µM | 2.66 µM | 20.6 µM | 0.535 µM | 11.6 µM | 2.08 µM | 8.16 µM | 2.05 µM | 15.7 µM | 1.65 µM | 12 µM | 2.96 µM | 82.5 µM | 0.905 µM | 11.8 µM | 3.74 µM
9 | N/C(=N/O)NOCCC(N)C(=O)O (stereo not drawn) | > 100 µM | > 100 µM | > 100 µM | > 100 µM | > 100 µM | > 100 µM | > 100 µM | > 100 µM | > 100 µM | > 100 µM | > 100 µM | > 100 µM | > 100 µM | > 100 µM | > 100 µM | > 100 µM | > 100 µM | > 100 µM | > 100 µM | > 100 µM
10 | Cn1cc(-c2[nH]c3cc(NC(=O)[C@H](N)C4CCCCC4)cc4c3c2C=NNC4=O)cn1 | 0.65 µM and 0.47 µM | 19.7 µM and > 10 µM | 0.264 µM and 0.351 µM | 4.08 µM and > 10 µM | 0.352 µM and 0.222 µM | 1.28 µM and 0.644 µM | 15.8 µM and > 10 µM | 0.72 µM and 1.96 µM | 18.3 µM and > 10 µM | 0.302 µM and 0.309 µM | 11.4 µM and > 10 µM | 0.273 µM and 0.318 µM |  | 0.215 µM and 0.375 µM | 1.41 µM and 5.85 µM | 3.63 µM and 3.85 µM | 16.9 µM and > 10 µM | 0.603 µM and 0.367 µM | 14.3 µM and > 10 µM | 1.96 µM and 2.77 µM
11 | CC(=O)OCc1cc[c]([Hg][Cl])o1 | 3.08 µM | 12 µM | 11.4 µM | 57.7 µM | 0.709 µM | 11.8 µM | 30.2 µM | 11 µM | 24.2 µM | 22.5 µM | 53.6 µM | 14.3 µM | 28.8 µM | 6.43 µM | 19.3 µM | 21.8 µM | 43.2 µM | 3.14 µM | 10.4 µM | 2.45 µM
12 | COc1ccc(C2CC(=O)Nc3c2c(C)nn3-c2nc3ccccc3[nH]2)cc1OC (stereo not drawn) | 8.64 µM | > 100 µM | 4.09 µM | 43.6 µM | 3.83 µM | 25.4 µM | > 77.2 µM | 4.27 µM | 63.6 µM | 2.89 µM | 6.49 µM | 1.77 µM | 6.91 µM | 4.19 µM | 33.7 µM | 3.82 µM | 17.8 µM | 4.67 µM | > 93.3 µM | 25.6 µM
13 | CN1CCN(CCCn2c3c(sc4ncccc43)c(=O)n3nnc(-c4ccccc4)c23)CC1 | 2.48 µM | 5.82 µM | 1.88 µM | 4.31 µM | 1.6 µM | 6.89 µM | 15.9 µM | 1.61 µM | 4.03 µM | 18.4 µM | 33.3 µM | 1.73 µM | 3.36 µM | 14.7 µM | 30.6 µM | 1.54 µM | 2.92 µM | 1.69 µM | 4.22 µM | 3.3 µM
14 | O=C(C#Cc1ccccc1)N1CCCCC1 |  | > 100 µM |  | > 100 µM |  |  | > 100 µM |  | > 100 µM |  | > 100 µM |  | > 100 µM |  | > 100 µM |  | > 100 µM |  | > 100 µM | > 100 µM
15 | Cn1cc(-c2nc(-c3c[nH]c4ccccc34)cs2)c2cccnc21 | 0.53 µM | > 100 µM | 0.689 µM | > 100 µM | 0.0586 µM | 2.11 µM | > 100 µM | 0.41 µM | > 100 µM | 0.523 µM | > 82.4 µM | 0.268 µM | 19.8 µM | 0.325 µM | 17.8 µM | 0.608 µM | > 100 µM | 1.13 µM | > 100 µM | 6.67 µM
16 | CC(C)Cc1cc(-c2cccn2C)c(C#N)c(=O)[nH]1 | > 100 µM | > 100 µM | > 100 µM | > 100 µM | > 100 µM | > 100 µM | > 100 µM | > 100 µM | > 100 µM | > 100 µM | > 100 µM | > 100 µM | > 100 µM | > 100 µM | > 100 µM | > 100 µM | > 100 µM | > 100 µM | > 100 µM | > 100 µM
17 | O=C(Nc1ccc(-c2cn3ccccc3n2)cc1)c1cc(Br)ccc1O |  | > 100 µM |  | > 100 µM |  |  | > 100 µM |  | > 100 µM |  | > 100 µM |  | > 100 µM |  | > 100 µM |  | > 100 µM |  | > 100 µM | > 100 µM
18 | OCC1OC(n2cnc3cc(Cl)c(Cl)cc32)C(O)C1O (stereo not drawn) | 25.3 µM | > 100 µM | 34.7 µM | > 72.2 µM | 16.3 µM | 8.01 µM | 36.5 µM | 44.5 µM | > 100 µM | 37.9 µM | > 100 µM | 24.6 µM | 85.2 µM | 23 µM | 58.4 µM | 18.8 µM | > 72.4 µM | 12.5 µM | 34.4 µM | 54.4 µM
19 | Nc1[nH]c(=S)[nH]c(=O)c1N=Nc1c(Br)cc(S(N)(=O)=O)cc1Br |  | > 100 µM |  | > 100 µM |  |  | > 100 µM |  | > 100 µM |  | > 100 µM |  | > 100 µM |  | > 100 µM |  | > 100 µM |  | > 100 µM | > 100 µM
20 | COc1cccc(/C=C/C(=O)c2cc3c(N)c(C(=O)Nc4ccccc4)sc3nc2C)c1 | 1.52 µM | 5.58 µM | 1.63 µM | > 50 µM | 1.06 µM | 1.28 µM | 4.61 µM | 1.47 µM | 5.06 µM | 4.96 µM | 19.8 µM | 6.27 µM | > 50 µM | 1.19 µM | 4.06 µM | 1.51 µM | 6.23 µM | 0.954 µM | 2 µM | 3.08 µM
21 | c1ccc2c(c1)CCCc1nnc3nc4ccccc4n3c1-2 | 7.5 µM | > 100 µM | 5.02 µM | 74.1 µM | 12.7 µM | 9.28 µM | > 100 µM | 7.87 µM | > 100 µM | 7.78 µM | > 100 µM | 9.01 µM | > 100 µM | 11.5 µM | > 100 µM | 3.66 µM | > 100 µM | 2.88 µM | > 100 µM | 33 µM
